In ChEMBL document CHEMBL3132858, “6-Alkyl-, 6-aryl- or 6-hetaryl-7-deazapurine ribonucleosides as inhibitors of human or MTB adenosine kinase and potential antimycobacterial agents” (Medchemcomm, 2013) one finds Activity, IC50 and CC50 data, which are given here for 31 molecules.

Active and inactive are the calls of the source. No cut-off for these calls is given here.

Data set [1] addresses Adenosine kinase (Mycobacterium tuberculosis (strain CDC 1551 / Oshkosh)) (UniProt P9WID4). Nature of the data set: Activity of Mycobacterium tuberculosis ADK assessed as compound conversion to 5'-phosphate form incubated at 37 degC for 20 mins by HPLC method.
Data set [2] deals with Adenosine kinase (Mycobacterium tuberculosis (strain CDC 1551 / Oshkosh), UniProt P9WID4). Nature of the data set: Inhibition of Mycobacterium tuberculosis ADK using [3H]-adenosine by scintillation counting method.
Chain of Adenosine kinase (Mycobacterium tuberculosis (strain CDC 1551 / Oshkosh), UniProt P9WID4) (P9WID4 whole entry): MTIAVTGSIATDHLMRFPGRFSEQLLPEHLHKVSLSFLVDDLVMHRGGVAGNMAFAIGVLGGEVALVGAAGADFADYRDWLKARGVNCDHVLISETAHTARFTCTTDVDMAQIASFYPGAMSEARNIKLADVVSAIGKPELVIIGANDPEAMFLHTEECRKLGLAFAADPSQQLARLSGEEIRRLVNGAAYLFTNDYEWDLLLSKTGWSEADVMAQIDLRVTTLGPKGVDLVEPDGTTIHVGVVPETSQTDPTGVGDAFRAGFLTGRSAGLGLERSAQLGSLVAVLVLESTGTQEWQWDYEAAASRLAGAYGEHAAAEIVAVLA
Data set [3] in a line: Cytotoxicity against human BJ cells after 72 hrs by MTT assay. The format is cell-based. In general terms: Formazan colour is commonly taken as a measure of viable cells.
Data set [4] concerns the target T1, Adenosine kinase (Homo sapiens, UniProt P55263). Nature of the data set: Inhibition of human ADK using [3H]-adenosine by scintillation counting method.
Target sequence in this assay (P55263 whole entry): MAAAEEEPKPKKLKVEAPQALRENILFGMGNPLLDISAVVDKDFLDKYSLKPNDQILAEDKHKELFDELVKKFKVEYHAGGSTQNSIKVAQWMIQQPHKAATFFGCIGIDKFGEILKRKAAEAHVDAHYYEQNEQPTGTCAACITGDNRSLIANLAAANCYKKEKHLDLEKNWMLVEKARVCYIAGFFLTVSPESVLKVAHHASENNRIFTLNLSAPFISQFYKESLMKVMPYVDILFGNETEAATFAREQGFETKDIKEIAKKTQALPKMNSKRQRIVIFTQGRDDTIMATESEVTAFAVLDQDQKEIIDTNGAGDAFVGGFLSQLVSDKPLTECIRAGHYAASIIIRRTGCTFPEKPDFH
Data set [5] addresses T1, Adenosine kinase. Nature of the data set: Activity of human ADK assessed as compound conversion to 5'-phosphate form incubated at 37 degC for 20 mins by HPLC method. Further details: concentration or dose not given beside the values.
Target sequence in this assay (P55263 2-362 limits assumed): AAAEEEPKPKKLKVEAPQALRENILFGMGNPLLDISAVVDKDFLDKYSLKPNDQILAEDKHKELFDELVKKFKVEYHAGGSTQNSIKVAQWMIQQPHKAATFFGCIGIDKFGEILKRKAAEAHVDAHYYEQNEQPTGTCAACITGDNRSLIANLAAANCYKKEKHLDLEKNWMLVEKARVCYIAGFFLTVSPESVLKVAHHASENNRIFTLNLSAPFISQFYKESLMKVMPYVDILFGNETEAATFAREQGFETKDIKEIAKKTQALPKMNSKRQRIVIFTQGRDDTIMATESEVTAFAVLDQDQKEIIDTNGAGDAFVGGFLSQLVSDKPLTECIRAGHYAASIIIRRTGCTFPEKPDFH
Data set [6] in a line: Cytotoxicity against human MRC5 cells after 72 hrs by MTT assay. The format is cell-based.

Chain of Adenosine kinase (Mycobacterium tuberculosis (strain CDC 1551 / Oshkosh)) (P9WID4 2-324 limits assumed): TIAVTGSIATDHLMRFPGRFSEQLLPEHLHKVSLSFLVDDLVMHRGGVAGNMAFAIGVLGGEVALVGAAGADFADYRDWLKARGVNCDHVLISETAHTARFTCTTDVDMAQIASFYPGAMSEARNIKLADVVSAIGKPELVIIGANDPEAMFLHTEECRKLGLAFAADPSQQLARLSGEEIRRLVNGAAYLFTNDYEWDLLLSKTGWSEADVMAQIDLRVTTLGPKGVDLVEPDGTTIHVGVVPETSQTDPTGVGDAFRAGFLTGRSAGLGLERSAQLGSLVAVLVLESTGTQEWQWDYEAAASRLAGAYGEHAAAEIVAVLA

By IC50 is commonly meant the concentration at which inhibition is half-maximal. Broadly, the CC50 is the concentration giving 50% cytotoxicity. As for `OC[C@H]1O[C@@H](n2cc(F)c3c(-c4cccs4)ncnc32)[C@H](O)[C@@H]1O`, in data set [1], the result was inactive. Further, the IC50 against Adenosine kinase [2] is 0.035 µM; on Adenosine kinase [4], 1.1 µM. In addition, the values for the half-maximal cytotoxic concentration (CC50) at 72 h in data set [3] and in data set [6] were 0.17 µM and 47.2 µM, respectively. In addition, the Activity on Adenosine kinase [5] turned out to be 52%.

Turning to `OC[C@H]1O[C@@H](n2ccc3c(-c4nccs4)ncnc32)[C@H](O)[C@@H]1O`, the result in data set [1] was inactive. The IC50 against Adenosine kinase [2] is 0.023 µM; against Adenosine kinase [4] it was > 20 µM. The CC50 at 72 h in data set [3] was determined as 0.26 µM; in data set [6], 37 µM. The Activity at Adenosine kinase [5] amounted to 41%.

On to `OC[C@H]1O[C@@H](n2cc(F)c3c(-c4ccoc4)ncnc32)[C@H](O)[C@@H]1O`, for which, in data set [1], the result was inactive. In addition, the figures for the IC50 against Adenosine kinase [2] and at Adenosine kinase [4] were 0.15 µM and > 10 µM, respectively. Also, the figures for the CC50 at 72 h in data set [3] and in data set [6] were 0.35 µM and 15.4 µM, respectively.

In the case of `OC[C@H]1O[C@@H](n2ccc3c(Cc4ccccc4)ncnc32)[C@H](O)[C@@H]1O`, the result in data set [1] was inactive. Moreover, the half-maximal inhibitory concentration (IC50) on Adenosine kinase [2] and against Adenosine kinase [4] was > 20 µM each time. For the same molecule, the values for the CC50 at 72 h in data set [3] and in data set [6] were 36.9 µM and > 50 µM, respectively.

As for `OC[C@H]1O[C@@H](n2ccc3c(-c4ccco4)ncnc32)[C@H](O)[C@@H]1O`, in data set [1], the result was inactive. For the same molecule, the IC50 stood at 0.32 µM against Adenosine kinase [2] and 1.3 µM against Adenosine kinase [4]. Moreover, the values for the 50% cytotoxic concentration (CC50) at 72 h in data set [3] and in data set [6] were 0.23 µM and 11.8 µM, respectively. For the same molecule, at Adenosine kinase [5], the Activity turned out to be 56%.

As to `OC[C@H]1O[C@@H](n2ccc3c(-c4ccoc4)ncnc32)[C@H](O)[C@@H]1O`, the result in data set [1] was inactive. For the same molecule, the figures for the IC50 against Adenosine kinase [2] and against Adenosine kinase [4] were 0.32 µM and > 10 µM, respectively. Besides, the CC50 at 72 h in data set [3] stood at 1.2 µM; in data set [6], 45.4 µM. In addition, the Activity at Adenosine kinase [5] is 32%.

With `OC[C@H]1O[C@@H](n2ccc3c(-c4ccccn4)ncnc32)[C@H](O)[C@@H]1O`, in data set [1], the outcome was inactive. Also, the IC50 against Adenosine kinase [2] is 0.12 µM; on Adenosine kinase [4], > 10 µM. The values for the CC50 at 72 h in data set [3] and in data set [6] were 1.74 µM and > 50 µM, respectively. On Adenosine kinase [5], the Activity is 39%.

As to `CCCCCCCCCCCCCCCCCCOP(=O)(O)OC[C@H]1O[C@@H](n2ccc3c(-c4ccoc4)ncnc32)[C@H](O)[C@@H]1O`, the outcome in data set [1] was inactive. Moreover, the IC50 is > 20 µM against Adenosine kinase [2] and 5.15 µM against Adenosine kinase [4]. Also, the values for the cytotoxic concentration (CC50) at 72 h in data set [3] and in data set [6] were 44.2 µM and > 50 µM, respectively.

Turning to `OC[C@H]1O[C@@H](n2ccc3c(-c4ccn[nH]4)ncnc32)[C@H](O)[C@@H]1O`, the outcome in data set [1] was inactive. Also, the half-maximal inhibitory concentration (IC50) is 0.059 µM against Adenosine kinase [2] and > 20 µM at Adenosine kinase [4]. Further, the 50% cytotoxic concentration (CC50) at 72 h in data set [3] was found to be 43.9 µM; in data set [6], 1.16 µM. Moreover, at Adenosine kinase [5], the Activity is 31%.

Turning to `CCCCCCCCCCCCCCCCCCOP(=O)(O)OC[C@H]1O[C@@H](n2ccc3c(-c4ccccc4)ncnc32)[C@H](O)[C@@H]1O`, the result in data set [1] was inactive. Moreover, the IC50 on Adenosine kinase [2] was > 20 µM; against Adenosine kinase [4], 4.4 µM. Besides, the CC50 at 72 h in data set [3] and in data set [6] was > 50 µM in each case.

Consider `OC[C@H]1O[C@@H](n2cc(F)c3c(-c4cc[nH]c4)ncnc32)[C@H](O)[C@@H]1O`, for which, in data set [1], the outcome was inactive. The results for the IC50 on Adenosine kinase [2] and on Adenosine kinase [4] were 0.4 µM and > 10 µM, respectively. The figures for the CC50 at 72 h in data set [3] and in data set [6] were 2.02 µM and 48.9 µM, respectively. On Adenosine kinase [5], the Activity is 97%.

On to `OC[C@H]1O[C@@H](n2ccc3c(-c4cc5ccccc5s4)ncnc32)[C@H](O)[C@@H]1O`, for which the result in data set [1] was inactive. The figures for the IC50 on Adenosine kinase [2] and at Adenosine kinase [4] were 0.0075 µM and 0.3 µM, respectively. Besides, the CC50 at 72 h in data set [3] and in data set [6] was > 50 µM throughout.

Take `OC[C@H]1O[C@@H](n2ccc3c(-c4ccccc4)ncnc32)[C@H](O)[C@@H]1O`: the result in data set [1] was inactive. Besides, the IC50 on Adenosine kinase [2] is 0.12 µM; on Adenosine kinase [4], > 10 µM. Further, the CC50 at 72 h in data set [3] was 44.1 µM; in data set [6], > 50 µM.

`OC[C@H]1O[C@@H](n2cc(F)c3c(-c4ccco4)ncnc32)[C@H](O)[C@@H]1O`: the result in data set [1] was inactive. Moreover, the IC50 on Adenosine kinase [2] turned out to be 0.19 µM; against Adenosine kinase [4] it was 1.3 µM. In addition, the CC50 at 72 h amounted to 0.31 µM in data set [3] and 29 µM in data set [6]. Further, the Activity at Adenosine kinase [5] was 50%.

`OC[C@H]1O[C@@H](n2ccc3c(-c4ccsc4)ncnc32)[C@H](O)[C@@H]1O`: the outcome in data set [1] was inactive. Moreover, the IC50 against Adenosine kinase [2] is 0.195 µM; at Adenosine kinase [4], > 10 µM. In addition, the figures for the CC50 at 72 h in data set [3] and in data set [6] were 21.3 µM and > 50 µM, respectively. In addition, the Activity on Adenosine kinase [5] was 56%.

Turning to `OC[C@H]1O[C@@H](n2ccc3c(-c4cccc5c4sc4ccccc45)ncnc32)[C@H](O)[C@@H]1O`, the outcome in data set [1] was inactive. Also, the IC50 amounted to 0.15 µM against Adenosine kinase [2] and 15.4 µM on Adenosine kinase [4]. In addition, the CC50 at 72 h in data set [3] is > 50 µM; in data set [6], 43.8 µM.

Consider `OC[C@H]1O[C@@H](n2cc(Cl)c3c(-c4ccco4)ncnc32)[C@H](O)[C@@H]1O`, for which the outcome in data set [1] was inactive. The IC50 turned out to be 0.11 µM against Adenosine kinase [2] and 0.29 µM at Adenosine kinase [4]. Further, the CC50 at 72 h in data set [3] is 37.2 µM; in data set [6], > 50 µM. The Activity at Adenosine kinase [5] came to 77%.

As to `CCCCCCCCCCCCCCCCCCOP(=O)(O)OC[C@H]1O[C@@H](n2ccc3c(-c4ccco4)ncnc32)[C@H](O)[C@@H]1O`, in data set [1], the outcome was inactive. For the same molecule, the IC50 on Adenosine kinase [2] was > 20 µM; on Adenosine kinase [4], 2.4 µM. The 50% cytotoxic concentration (CC50) at 72 h in data set [3] was > 50 µM; in data set [6] it was 45.3 µM.

`OC[C@H]1O[C@@H](n2ccc3c(-c4cc[nH]c4)ncnc32)[C@H](O)[C@@H]1O`: the outcome in data set [1] was inactive. The IC50 is 0.3 µM against Adenosine kinase [2] and > 10 µM against Adenosine kinase [4]. The results for the CC50 at 72 h in data set [3] and in data set [6] were 1.87 µM and 40.1 µM, respectively. In addition, the Activity at Adenosine kinase [5] is 70%.

Consider `OC[C@H]1O[C@@H](n2ccc3c(-c4cc5ccccc5[nH]4)ncnc32)[C@H](O)[C@@H]1O`, for which the outcome in data set [1] was inactive. The 50% inhibitory concentration (IC50) worked out at 0.04 µM against Adenosine kinase [2] and 8.35 µM at Adenosine kinase [4]. For the same molecule, the CC50 at 72 h in data set [3] and in data set [6] was > 50 µM each time.

As for `OC[C@H]1O[C@@H](n2ccc3c(-c4cccs4)ncnc32)[C@H](O)[C@@H]1O`, the outcome in data set [1] was inactive. Also, the IC50 was 0.046 µM against Adenosine kinase [2] and > 5 µM against Adenosine kinase [4]. Also, the CC50 at 72 h in data set [3] was 0.31 µM; in data set [6] it was > 50 µM.

`CCc1ncnc2c1ccn2[C@@H]1O[C@H](CO)[C@@H](O)[C@H]1O`: the outcome in data set [1] was inactive. The IC50 on Adenosine kinase [2] was 8.1 µM; on Adenosine kinase [4], > 20 µM. Also, the CC50 at 72 h in data set [3] stood at 2.7 µM; in data set [6] it was 50 µM.

For the molecule `OC[C@H]1O[C@@H](n2ccc3c(-c4cccnc4)ncnc32)[C@H](O)[C@@H]1O`, the result in data set [1] was inactive. Moreover, the IC50 against Adenosine kinase [2] was 1 µM; at Adenosine kinase [4] it was > 10 µM. Besides, the CC50 at 72 h in data set [3] was 50 µM; in data set [6], > 50 µM.

On to `COc1ccc(-c2ncnc3c2ccn3[C@@H]2O[C@H](CO)[C@@H](O)[C@H]2O)cc1`, for which, in data set [1], the outcome was inactive. The IC50 was 0.058 µM against Adenosine kinase [2] and > 10 µM against Adenosine kinase [4]. In addition, the CC50 at 72 h in data set [3] and in data set [6] was > 50 µM in each case.

Take `CCCCCCCCCCCCCCCCCCOP(=O)(O)OC[C@H]1O[C@@H](n2ccc3c(-c4ccsc4)ncnc32)[C@H](O)[C@@H]1O`: the result in data set [1] was inactive. Besides, the IC50 at Adenosine kinase [2] is > 20 µM; against Adenosine kinase [4], 6.35 µM. Moreover, the CC50 at 72 h in data set [3] and in data set [6] was > 50 µM throughout.

On to `OC[C@H]1O[C@@H](n2cc(Cl)c3c(-c4ccc(F)cc4)ncnc32)[C@H](O)[C@@H]1O`, for which the result in data set [1] was inactive. Besides, the IC50 on Adenosine kinase [2] was 0.4 µM; at Adenosine kinase [4], > 20 µM. In addition, the CC50 at 72 h in data set [3] was 49.5 µM; in data set [6], > 50 µM.

On to `OC[C@H]1O[C@@H](n2ccc3c(-c4cccc5c4Oc4ccccc4S5)ncnc32)[C@H](O)[C@@H]1O`, for which the result in data set [1] was inactive. Further, the IC50 worked out at 1.46 µM on Adenosine kinase [2] and 3.07 µM on Adenosine kinase [4]. In addition, the CC50 at 72 h in data set [3] and in data set [6] was > 50 µM each time.

As for `CCCCCCCCCCCCCCCCCCOP(=O)(O)OC[C@H]1O[C@@H](n2ccc3c(-c4cccs4)ncnc32)[C@H](O)[C@@H]1O`, in data set [1], the result was inactive. Moreover, the concentration for half-maximal inhibition (IC50) against Adenosine kinase [2] is > 20 µM; at Adenosine kinase [4] it was 1.97 µM.

For the molecule `CCCCCCCCCCCCCCCCCCOP(=O)(O)OC[C@H]1O[C@@H](n2ccc3c(-c4cc5ccccc5o4)ncnc32)[C@H](O)[C@@H]1O`, the result in data set [1] was inactive. The IC50 on Adenosine kinase [2] was > 20 µM; against Adenosine kinase [4], 2.9 µM. Moreover, the CC50 at 72 h in data set [3] and in data set [6] was > 50 µM each time.

With `OC[C@H]1O[C@@H](n2ccc3c(-c4cc5ccccc5o4)ncnc32)[C@H](O)[C@@H]1O`, the outcome in data set [1] was inactive. Moreover, the IC50 came out at 0.0145 µM against Adenosine kinase [2] and 2.1 µM against Adenosine kinase [4]. The cytotoxic concentration (CC50) at 72 h in data set [3] and in data set [6] was > 50 µM each time.

Take `OC[C@H]1O[C@@H](n2ccc3c(-c4cccc5c4oc4ccccc45)ncnc32)[C@H](O)[C@@H]1O`: the result in data set [1] was inactive. Further, the IC50 at Adenosine kinase [2] was determined as 2.35 µM; against Adenosine kinase [4] it was 5.26 µM. Besides, the CC50 at 72 h in data set [3] and in data set [6] was > 50 µM each time.
